One assay concerns the target T1, Full-length human MNK1 (Homo sapiens, UniProt Q9BUB5, T385D).
T1 construct: GST (N); purchased Carna Biosciences 02-145; host or cells: baculovirus expression system
Description: MNK1 biochemical IC50 assay (Caliper Mobility Shift Assay). The following applies: read-out: P(IC50) MNK1 (converted). The text has this:
(§1) The phosphorylated peptide product and unphosphorylated peptide substrate were detected using a Caliper Mobility Shift Assay using the Caliper LabChip EZ Reader II.
(§2) The Caliper Mobility Shift Assay technology is based on the utilisation of a microfluidic chip to measure the conversion of a fluorescent non-phosphorylated peptide substrate to phosphorylated product by electrophoresis separation of substrate and product and detection via Laser-induced fluorescence. The LabChip EZ Reader software calculates the relative heights of substrate and product peaks and reports the peak ratio (Product peak(P) divided by the sum of Product peak(P) and Substrate peak(S)). The percent-conversion is calculated as 100×[(P/(P+S)]. All assays were set up to run in the linear phase with a maximum of 10 percent substrate conversion.
(§3) These were N-terminal GST fusion proteins expressed in baculovirus expression system and purified by glutathione sepharose affinity chromatography. […] All other assay reagents were sourced from Sigma.
Compounds were serially diluted in DMSO to generate a 10-point half log dilution curve with a final top concentration of 100 uM in the assay. […] Compounds were pre-incubated with enzyme and peptide in reaction buffer for 30 mins prior to addition of ATP to initiate the reaction. Final assay concentrations were 3 nM MNK1, 2 uM peptide substrate, 50 uM ATP, 50 mM Hepes pH 7.0, 0.01% BSA, 10 mM MgCl2, 1 mM dithiothrietol.
(§4) The assay incubation times were adjusted depending on the concentration of ATP used. Assays were performed at low (50 uM) and high (1 mM) ATP. The low ATP values were selected to run at Km conditions for the standard assay to allow relative potencies to be compared across other kinases. The high ATP concentration was selected as representative of cellular ATP concentrations, and for an indication of ATP competition, where a significant shift (greater than half log) in apparent potency would be expected compared to Km conditions. All IC50 values reported are the average of at least two independent experiments.

In another assay the target is T2, Full-length human MNK2 (Homo sapiens, UniProt Q9HBH9, T379D).
T2 construct: GST (N); purchased Carna Biosciences 02-146; host or cells: baculovirus expression system
Nature of the assay: MNK2 biochemical IC50 assay (Caliper Mobility Shift Assay). Conditions: read-out: P(IC50) MNK2 (converted).
From the text: as §1, §2, §3, §4
Reactions were performed as above using 10 nM MNK2 in the assay. Standard assays contained 50 uM ATP and high concentration ATP assays contained 1 mM ATP. […] All other conditions were the same.

In assay [1] the test system is phosphorylation of eIF4E at ser209 in MV4.11 cell line. Nature of the assay: MNK cellular activity phospho-eIF4E detection assay (Alphascreen Surefire). The format is cell-based. Conditions: Homo sapiens; MV4.11 cell line, phospho-eIF4E (ser209) Alphascreen Surefire; read-out: P(IC50) elF4E (converted). The protocol:
The assay detection is based on the formation of sandwich antibody complexes coupled to donor and acceptor beads. Excitation at 680 nm causes the transfer of a singlet oxygen species between donor and acceptor beads when they are in close proximity by binding to the analyte ([…]), which results in the emission of light at 520-620 nm.
Cells were then lysed and the Alphascreen Surefire protocol followed according to manufacturer's recommendations. 8 ul Acceptor beads (1:50 dilution in kit activation buffer) was added to lysate, shaken 150 rpm for 2 min and incubated for 1.5 hr at room temperature. 3 ul Donor beads (1:20 dilution in kit dilution buffer) were then added, shaken 150 rpm for 2 min and incubated for a further 1.5 hr at room temperature after which the plates were read on Pherastar FS using Alphascreen optic module.
Data were normalised relative to untreated DMSO only controls and curves repeated in duplicate within experiments. Data reported are averages of at least 2 independent experiments.

As usually defined, the IC50 is the concentration that gives 50% inhibition.

T2 sequence (Q9HBH9 whole entry T379D): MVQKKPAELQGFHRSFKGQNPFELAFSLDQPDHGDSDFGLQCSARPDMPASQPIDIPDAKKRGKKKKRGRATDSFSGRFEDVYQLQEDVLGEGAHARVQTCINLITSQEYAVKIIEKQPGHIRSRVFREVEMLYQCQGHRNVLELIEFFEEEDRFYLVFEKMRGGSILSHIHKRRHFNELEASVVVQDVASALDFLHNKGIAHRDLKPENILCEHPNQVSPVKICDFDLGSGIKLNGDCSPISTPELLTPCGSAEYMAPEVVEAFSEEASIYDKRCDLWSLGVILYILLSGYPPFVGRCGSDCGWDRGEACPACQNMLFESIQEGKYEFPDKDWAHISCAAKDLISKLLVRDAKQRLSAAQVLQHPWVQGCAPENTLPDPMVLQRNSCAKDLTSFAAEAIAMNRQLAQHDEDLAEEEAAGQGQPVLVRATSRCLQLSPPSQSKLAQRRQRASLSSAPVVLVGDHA
T1 sequence (Q9BUB5 1-424 isoform Q9BUB5-2 T344D): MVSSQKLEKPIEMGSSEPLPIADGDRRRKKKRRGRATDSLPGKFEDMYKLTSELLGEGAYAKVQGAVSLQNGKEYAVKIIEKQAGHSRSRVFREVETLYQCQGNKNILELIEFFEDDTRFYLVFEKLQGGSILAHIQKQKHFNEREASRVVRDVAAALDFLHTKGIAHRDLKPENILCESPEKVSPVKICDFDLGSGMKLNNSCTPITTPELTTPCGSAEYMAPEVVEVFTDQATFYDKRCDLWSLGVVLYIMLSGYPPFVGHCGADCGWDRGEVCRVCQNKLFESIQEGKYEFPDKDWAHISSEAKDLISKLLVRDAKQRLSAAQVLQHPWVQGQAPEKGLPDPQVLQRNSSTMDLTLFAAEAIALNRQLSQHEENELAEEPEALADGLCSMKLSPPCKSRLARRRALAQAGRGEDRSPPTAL

Take `CC(C)[C@@H](CO)NC(=O)c1nc2c(N3CCc4ccccc43)ncnc2s1` [Example 101, N-[(1S)-1-(hydroxymethyl)-2-methyl-propyl]-7-indolin-1-yl-thiazolo[5,4-d]pyrimidine-2-carboxamide]: the IC50 was 10 nM on Full-length human MNK1, 12.6 nM at Full-length human MNK2 and 31.6 nM in assay [1].

`Fc1ccc2c(c1)CCN2c1ncnc2scnc12` [Example 171, 7-(5-Fluoroindolin-1-yl)thiazolo[5,4-d]pyrimidine]: the IC50 on Full-length human MNK1 is 79.4 nM; at Full-length human MNK2, 63.1 nM; in assay [1], 251 nM.

Take `CNCCCNC(=O)c1nc2c(Nc3ccc(F)cc3OC(C)C)ncnc2s1` [Example 29, 7-{[4-Fluoro-2-(propan-2-yloxy)phenyl]amino}-N-[3-(methylamino)propyl][1,3]thiazolo[5,4-d]pyrimidine-2-carboxamide]: the half-inhibitory concentration (IC50) is 63.1 nM at Full-length human MNK1, 50.1 nM on Full-length human MNK2 and 39.8 nM in assay [1].

Turning to `NCCC1CN(c2ncnc3sc(C(=O)NCCC(F)(F)F)nc23)c2ccccc21` (stereo not drawn) [Example 167, 7-[3-(2-aminoethyl)indolin-1-yl]-N-(3,3,3-trifluoropropyl)thiazolo [5,4-d]pyrimidine-2-carboxamide], the results for the IC50 (on Full-length human MNK1; at Full-length human MNK2; in assay [1]) were 7.94 nM, 5.01 nM and 15.8 nM, respectively.

In the case of `NCCC1CN(c2ncnc3sc(C(=O)NC4CC4)nc23)c2ccccc21` (stereo not drawn) [Example 164, 7-(3-(2-Aminoethyl)indolin-1-yl)-N-cyclo-propylthiazolo[5,4-d]pyrimidine-2-carboxamide], the IC50 (at Full-length human MNK1; on Full-length human MNK2; in assay [1]) was 5.01 nM in each case.

Regarding `O=C(NCC1CCNCC1)c1nc2c(N3CCc4cc(C(F)(F)F)ccc43)ncnc2s1` [Example 145], the IC50 on Full-length human MNK1 is 126 nM; on Full-length human MNK2, 100 nM; in assay [1], 501 nM.

As for `O=C(NCC1CCNCC1)c1nc2c(Nc3ccccc3-c3ccco3)ncnc2s1` [Example 62, 7-[2-(2-furyl)anilino]-N-(4-piperidylmethyl)thiazolo[5,4-d]pyrimidine-2-carboxamide], the 50% inhibitory concentration (IC50) on Full-length human MNK1 is 631 nM; on Full-length human MNK2 it was 316 nM; in assay [1], 316 nM.

Regarding `O=C(NCC1CCNCC1)c1nc2c(N3c4ccccc4C[C@@H]3CO)ncnc2s1` [Example 138], the concentration for half-maximal inhibition (IC50) at Full-length human MNK1 is 398 nM; on Full-length human MNK2, 316 nM; in assay [1] it was 200 nM.

`CNCCCNC(=O)c1nc2c(N3CC(C)(C)c4ccccc43)ncnc2s1` [Example 159]: the IC50 on Full-length human MNK1 was 5.01 nM; on Full-length human MNK2, 3.16 nM; in assay [1], 5.01 nM.

`CC(C)Oc1cc(F)ccc1Nc1ncnc2sc(C(=O)NCC3CCOCC3)nc12` [Example 38, 7-{[4-fluoro-2-(propan-2-yloxy)phenyl]amino}-N-(tetrahydro-2H-pyran-4-ylmethyl)[1,3]thiazolo[5,4-d]pyrimidine-2-carboxamide]: the values for the IC50 (on Full-length human MNK1; at Full-length human MNK2; in assay [1]) were 100 nM, 63.1 nM and 79.4 nM, respectively.

In the case of `O=C(NC1CCOCC1)c1nc2c(N3CCc4ncccc43)ncnc2s1` [Example 44, 7-(2,3-Dihydro-1H-pyrrolo[3,2-b]pyridin-1-yl)-N-(tetrahydro-2H-pyran-4-yl)[1,3]thiazolo[5,4-d]pyrimidine-2-carboxamide], the IC50 was 158 nM at Full-length human MNK1, 100 nM at Full-length human MNK2 and 100 nM in assay [1].

`O=C(NCC1CCNCC1)c1nc2c(N3CC(CCO)c4ccccc43)ncnc2s1` (stereo not drawn) [Example 136]: the IC50 at Full-length human MNK1 is 7.94 nM; at Full-length human MNK2, 5.01 nM; in assay [1] it was 6.31 nM.

Regarding `CN(C)CCCNC(=O)c1nc2c(N3CCc4cccc(F)c43)ncnc2s1` [Example 92, N-[3-(dimethylamino)propyl]-7-(7-fluoroindolin-1-yl)thiazolo[5,4-d]pyrimidine-2-carboxamide], the IC50 is 158 nM at Full-length human MNK1, 126 nM on Full-length human MNK2 and 251 nM in assay [1].

The record behind these values is patent US10669284B2, “Fused thiazolopyrimidine derivatives as MNKS inhibitors” (LIFEARC, priority 2015, dated 2020).
